Tested on: THP-1 cells
Experiment: Human monocytic THP-1 cell differentiation assay for soluble proteins (THP soluble protein assay)
Type: cell-based
Conditions: LPS-stimulated THP-1 cells
Excerpt: Mitogenic stimulation of THP-1 cells cause differentiation into macrophage like cells with concomitant secretion of tumor necrosis factor (TNF-α) and TNF receptor (TNF-R p75/80 and TNF-R p55/60) and Interleukin-8 (IL-8), among other proteins. In addition, non-stimulated THP-1 cells shed both the p75/80 and the p55/60 receptors over time. The release of membrane bound TNF-α and possibly TNF-R p75/80 and TNF-R p55/60, but not IL-8, is mediated by an enzyme called TNF-α converting enzyme or TACE.
THP-1 cells (from ATCC) are a human monocytic cell line which were obtained from the peripheral blood of a person with acute monocytic leukemia. […]
To perform an assay, the THP-1 cells are co-incubated in a 24 well plate with […] of a 24 mg/ml stock of Lipopolysacharide (LPS) (Calbiochem Lot# B13189) at 37°C in 5% CO2 at a concentration of 1.091 x 10^6 cells/ml (1.1 ml/well) for a total of 24 hours. […] Compounds can be evaluated for their effect on basal (non-stimulated) shedding of the receptors by replacing the LPS with […] of THP-1 media. […]
In addition, at the 24 hours timepoint, and the cells for each treatment group are collected by resuspension in 500 µl/well of THP-1 media and transferred into a FACS tube. […] The samples are run on a Becton Dickinson FaxCaliber FLOW cytometry machine and the amount of dye taken up by each cell is measured in the high red wavelength (FL3). […]

CC#CCOc1ccc(S(=O)(=O)N(C)c2c(C(=O)NO)cc(OC)nc2OC)cc1 [Example 33, 3-[Methyl-(4-but-2-ynyloxy-benzenesulfonyl)-amino]-N-hydroxy-2,6-dimethoxyisonicotinamide]
inhibition at 3 µM: 31%

From patent EP1147102B1, “HETEROARYL ACETYLENIC SULFONAMIDE AND PHOSPHINIC ACID AMIDE HYDROXAMIC ACID TACE INHIBITORS” (Wyeth Holdings Corporation, priority 1999, dated 2000)
